pIC50: −log10 of the molar value. Activity calls are given as the source filed them. The rule behind the calls is not given here.
How the values were obtained:
GP2d = experiment: PROTAC activity at CRBN/KRAS G12D mutant in human GP2d cells assessed as induction of KRAS G12D mutant degradation 0.01 to 100 nM measured after 24 hrs by immunoblot analysis; type: cell-based; conditions: dose 0.01-100 nM
[1] = Clearance in male cynomolgus monkey at 1 mg/kg, iv measured up to 24 hrs by LC-MS/MS analysis; type: ADME, organism-based, Macaca fascicularis; conditions: in vivo
[2] = tested on: Protein cereblon/GTPase KRas (Homo sapiens), P01116+Q96SW2 [G12D]; experiment: PROTAC activity at CRBN/KRAS G12D mutant in human ASPC1 cells assessed as induction of KRAS G12D mutant degradation at 5 nM preincubated with CRBN ligand followed by compound addition and measured after 24 hrs by Western blot analysis; type: cell-based
[3] = tested on: Protein cereblon/GTPase KRas (Homo sapiens), P01116+Q96SW2 [G12D]; experiment: PROTAC activity at CRBN/KRAS G12D mutant in human ASPC1 cells assessed as induction of KRAS G12D mutant degradation at 1 nM measured up to 36 hrs by immunoblot analysis; type: cell-based
[4] = Plasma protein binding in dog at 2 uM by LC-MS/MS analysis; type: ADME, cell-free, Canis lupus familiaris; conditions: read-out: PPB
[5] = Elimination half life in male ICR mouse lung at 10 mg/kg, iv measured up to 336 hrs by LC-MS/MS analysis; type: ADME, organism-based; conditions: read-out: beta t1/2 (converted)
[6] = Toxicity in female Balb/c nude mouse xenografted with human GP2d cells assessed as change in body weight at 1 to 10 mg/kg, iv Q2W measured after 28 days; type: organism-based; conditions: in vivo, 672 h, dose 1-10 mg/kg, time 28 day
[7] = AUC (0 to t) in male Sprague-Dawley rat at 1 mg/kg, iv measured up to 24 hrs by LC-MS/MS analysis; type: ADME, organism-based; conditions: in vivo
[8] = tested on: Protein cereblon/GTPase KRas (Homo sapiens), P01116+Q96SW2 [G12D]; experiment: PROTAC activity at CRBN/KRAS G12D mutant in human ASPC1 cells assessed as induction of KRAS G12D mutant degradation at 10 nM measured after 12 hrs by immunoblot analysis relative to control; type: cell-based
[9] = Metabolic stability in rat liver microsomes assessed as intrinsic clearance at 1 uM preincubated for 3 mins with NADPH and measured up to 60 mins by LC-MS/MS analysis; type: ADME, Microsome; conditions: time < 63 min, read-out: CLH
CCRF-CEM [10] = experiment: Antitumor activity against human CCRF-CEM cells harbouring KRAS G12D mutant xenografted in female Balb/c nude mouse model assessed as tumor regression at 1 to 10 mg/kg, iv QW administered weekly and measured after 28 days; type: functional, organism-based; conditions: dose 1-10 mg/kg, time 28.0 day
[11] = Inhibition of ERK phosphorylation in human GP2d cells harbouring KRAS G12D mutant measured after 24 hrs; type: cell-based
GTPase KRas = GTPase KRas (Homo sapiens, UniProt P01116, G12D); experiment: Binding affinity to 6 His-tagged GDP-loaded human KRAS G12D mutant assessed as GDP-GTP exchange preincubated for 30 mins followed by GTP addition for 30 mins by HTRF method
AGS = experiment: Antiproliferative activity against human AGS cells harbouring KRAS G12D mutant assessed as inhibition of cell growth measured after 72 hrs by Cell titer glo method; type: functional, cell-based
[12] = Plasma protein binding in human at 2 uM by LC-MS/MS analysis; type: ADME, cell-free; conditions: read-out: PPB
[13] = Drug concentration in male Balb/c nude mouse plasma xenografted with human GP2d cells at 10 mg/kg, iv administered as single dose measured after 6 hrs by LC-MS/MS analysis; type: ADME, organism-based
Cytochrome P450 3A4 [14] = target: T1, Cytochrome P450 3A4 (Homo sapiens, UniProt P08684); experiment: Inhibition of CYP3A4 in human liver microsomes using testosterone as substrate at 10 uM incubated for 15 mins in presence of NADPH by LC/MS analysis; type: ADME, Microsome; conditions: 0.25 h
[15] = Antitumor activity against human GP2d cells xenografted in female Balb/c nude mouse model assessed as tumor growth inhibition at 1 mg/kg, iv QW measured after 28 days relative to control; type: functional; conditions: 672 h, time 28 day, read-out: TGI
ASPC1 = experiment: Antiproliferative activity against human ASPC1 cells harbouring KRAS G12D mutant assessed as inhibition of cell growth measured after 72 hrs by Cell titer glo method; type: functional, cell-based; conditions: ASPC1, 72 h
[16] = tested on: Protein cereblon/GTPase KRas (Homo sapiens), P01116+Q96SW2 [G12D]; experiment: In vivo PROTAC activity at CRBN/KRAS G12D mutant in male Balb/c nude mouse xenografted with human PK-59 cells assessed as reduction in DUSP4 level in tumor at 10 mg/kg, iv measured after 6 hrs relative to control; type: functional, organism-based; parameters: scale not given: the % may be the effect or the level left
[17] = Elimination half life in male ICR mouse colon at 10 mg/kg, iv measured up to 336 hrs by LC-MS/MS analysis; type: ADME, organism-based; conditions: read-out: beta t1/2 (converted)
Cytochrome P450 2C19 = Cytochrome P450 2C19 (Homo sapiens, UniProt P33261); experiment: Inhibition of CYP2C19 in human liver microsomes using S-mephenytoin as substrate at 10 uM incubated for 15 mins in presence of NADPH by LC/MS analysis; type: ADME, Microsome; conditions: 0.25 h
[18] = Metabolic stability in monkey liver microsomes assessed as half life at 1 uM preincubated for 3 mins with NADPH and measured up to 60 mins by LC-MS/MS analysis; type: ADME, Macaca mulatta, Microsome; conditions: rhesus monkey, time < 63 min
NCI-H358 = experiment: Antiproliferative activity against human NCI-H358 cells harbouring KRAS G12C mutant assessed as inhibition of cell growth measured after 72 hrs by Cell titer glo method; type: functional, cell-based
CCRF-CEM [19] = experiment: Antiproliferative activity against human CCRF-CEM cells harbouring KRAS G12D mutant assessed as inhibition of cell growth measured after 72 hrs by Cell titer glo method; type: functional, cell-based
Cytochrome P450 3A4 [20] = target: T1, Cytochrome P450 3A4; experiment: Inhibition of CYP3A4 in human liver microsomes using midazolam as substrate at 10 uM incubated for 15 mins in presence of NADPH by LC/MS analysis; type: ADME, Microsome; conditions: 0.25 h
[21] = Drug concentration in male Balb/c nude mouse plasma xenografted with human PK-59 cells at 10 mg/kg, iv administered as single dose measured after 168 hrs by LC-MS/MS analysis; type: ADME, organism-based
[22] = target: Protein cereblon/GTPase HRas (Homo sapiens) (UniProt P01112+Q96SW2); experiment: PROTAC activity at CRBN/HRAS in human MKN-1 cells assessed as […] degradation 0.061 to 1000 nM measured after 24 hrs by immunoblot analysis; type: cell-based; conditions: dose 0.061-1000 nM
Cytochrome P450 2C8 = Cytochrome P450 2C8 (Homo sapiens, UniProt P10632); experiment: Inhibition of CYP2C8 in human liver microsomes using amodiaquine as substrate at 10 uM incubated for 20 mins in presence of NADPH by LC/MS analysis; type: ADME, Microsome
NCI-H727 = experiment: Antiproliferative activity against human NCI-H727 cells harbouring KRAS G12V mutant assessed as inhibition of cell growth measured after 72 hrs by Cell titer glo method; type: functional, cell-based
[23] = AUC (0 to t) in male cynomolgus monkey at 1 mg/kg, iv measured up to 24 hrs by LC-MS/MS analysis; type: ADME, organism-based, Macaca fascicularis; conditions: in vivo
[24] = Half life in male Beagle dog at 1 mg/kg, iv measured up to 24 hrs by LC-MS/MS analysis; type: ADME, organism-based, Canis lupus familiaris; conditions: in vivo
[25] = Plasma protein binding in monkey at 2 uM by LC-MS/MS analysis; type: ADME, cell-free, Macaca mulatta; conditions: rhesus monkey, read-out: PPB

Chain of Protein cereblon/GTPase KRas (Homo sapiens), P01116+Q96SW2 [G12D] (P01116 whole entry G12D): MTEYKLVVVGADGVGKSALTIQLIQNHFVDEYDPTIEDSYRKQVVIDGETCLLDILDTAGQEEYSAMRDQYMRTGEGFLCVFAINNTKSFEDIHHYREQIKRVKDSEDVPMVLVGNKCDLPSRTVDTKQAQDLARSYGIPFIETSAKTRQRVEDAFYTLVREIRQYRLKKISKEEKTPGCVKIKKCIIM
Chain of Protein cereblon/GTPase KRas (Homo sapiens), P01116+Q96SW2 [G12D] (Q96SW2 whole entry partner): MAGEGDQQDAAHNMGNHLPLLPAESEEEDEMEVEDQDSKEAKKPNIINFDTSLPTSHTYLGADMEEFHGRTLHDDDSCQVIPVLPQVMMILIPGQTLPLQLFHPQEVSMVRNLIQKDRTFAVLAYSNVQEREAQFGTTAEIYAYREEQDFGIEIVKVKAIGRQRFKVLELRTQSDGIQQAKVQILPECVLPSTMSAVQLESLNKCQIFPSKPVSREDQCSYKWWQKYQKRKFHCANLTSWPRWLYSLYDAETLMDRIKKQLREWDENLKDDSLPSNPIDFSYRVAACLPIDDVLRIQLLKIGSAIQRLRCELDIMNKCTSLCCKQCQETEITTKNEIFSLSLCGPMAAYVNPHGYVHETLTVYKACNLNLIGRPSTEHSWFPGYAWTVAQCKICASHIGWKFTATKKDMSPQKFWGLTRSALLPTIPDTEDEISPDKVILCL
T1 sequence (P08684 whole entry): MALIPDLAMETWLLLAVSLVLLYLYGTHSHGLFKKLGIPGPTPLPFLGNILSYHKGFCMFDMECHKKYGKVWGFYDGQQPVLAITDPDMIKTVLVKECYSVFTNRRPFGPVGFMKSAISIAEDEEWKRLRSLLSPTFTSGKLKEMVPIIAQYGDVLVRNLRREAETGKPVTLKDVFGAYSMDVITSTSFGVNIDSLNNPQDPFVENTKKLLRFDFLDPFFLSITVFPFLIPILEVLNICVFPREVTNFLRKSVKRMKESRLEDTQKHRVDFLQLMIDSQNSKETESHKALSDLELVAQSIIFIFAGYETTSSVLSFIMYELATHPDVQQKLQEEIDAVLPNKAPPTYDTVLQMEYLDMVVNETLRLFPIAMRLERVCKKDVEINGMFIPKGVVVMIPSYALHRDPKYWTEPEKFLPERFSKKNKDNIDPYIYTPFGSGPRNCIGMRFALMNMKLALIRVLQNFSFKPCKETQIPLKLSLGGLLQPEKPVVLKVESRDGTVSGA
Chain of GTPase KRas (P01116 whole entry G12D): as the sequence (P01116 whole entry G12D) above
Chain of Cytochrome P450 2C19 (P33261 whole entry): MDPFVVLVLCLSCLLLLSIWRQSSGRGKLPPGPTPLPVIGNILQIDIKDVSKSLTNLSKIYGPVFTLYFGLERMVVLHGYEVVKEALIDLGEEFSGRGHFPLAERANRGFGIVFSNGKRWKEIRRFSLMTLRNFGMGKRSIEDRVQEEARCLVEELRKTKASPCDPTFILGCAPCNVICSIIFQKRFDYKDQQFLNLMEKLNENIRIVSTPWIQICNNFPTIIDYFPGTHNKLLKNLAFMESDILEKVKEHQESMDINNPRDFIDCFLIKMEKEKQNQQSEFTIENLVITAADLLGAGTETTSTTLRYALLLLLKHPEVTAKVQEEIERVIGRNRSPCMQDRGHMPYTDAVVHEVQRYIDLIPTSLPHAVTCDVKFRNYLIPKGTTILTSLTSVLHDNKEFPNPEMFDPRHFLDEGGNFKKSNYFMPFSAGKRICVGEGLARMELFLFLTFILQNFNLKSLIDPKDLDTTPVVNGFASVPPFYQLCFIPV
Chain of Cytochrome P450 2C8 (P10632 whole entry): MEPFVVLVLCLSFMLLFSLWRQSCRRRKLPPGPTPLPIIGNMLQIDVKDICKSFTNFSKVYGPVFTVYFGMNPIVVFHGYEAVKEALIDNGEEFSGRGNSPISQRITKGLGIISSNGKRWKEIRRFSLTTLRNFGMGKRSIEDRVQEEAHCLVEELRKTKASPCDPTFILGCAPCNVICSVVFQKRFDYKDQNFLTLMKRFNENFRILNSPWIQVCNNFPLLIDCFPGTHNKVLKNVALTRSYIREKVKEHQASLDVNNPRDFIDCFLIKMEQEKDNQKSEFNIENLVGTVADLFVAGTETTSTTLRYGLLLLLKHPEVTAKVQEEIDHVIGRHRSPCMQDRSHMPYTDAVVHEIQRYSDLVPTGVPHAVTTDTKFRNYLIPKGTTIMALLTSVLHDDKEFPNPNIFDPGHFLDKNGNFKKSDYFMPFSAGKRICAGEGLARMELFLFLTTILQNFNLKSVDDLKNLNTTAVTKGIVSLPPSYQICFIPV
Chain of Protein cereblon/GTPase HRas (Homo sapiens) (P01112 whole entry, looked up): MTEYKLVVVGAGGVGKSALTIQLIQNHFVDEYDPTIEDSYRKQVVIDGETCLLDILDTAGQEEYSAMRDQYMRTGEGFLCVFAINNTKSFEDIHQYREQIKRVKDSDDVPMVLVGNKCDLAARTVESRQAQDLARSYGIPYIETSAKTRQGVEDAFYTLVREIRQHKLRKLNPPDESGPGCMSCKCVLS
Chain of Protein cereblon/GTPase HRas (Homo sapiens) (Q96SW2 whole entry, looked up): as the sequence (Q96SW2 whole entry partner) above

## C#Cc1c(F)ccc2cc(O)cc(-c3ncc4c(N5CC6CCC(C5)N6)nc(OCC5(CN6CCC7(CC6)CC(N6CCC(c8cc9c(cc8F)c(N8CCC(=O)NC8=O)nn9C)CC6)C7)CC5)nc4c3F)c12
GP2d
  Activity: Active
[1]
  clearance: 19.5 mL/min/kg
[2]
  Activity: Active
[3]
  Activity: Active
[4]
  fraction unbound at 2 µM: < 0.05
[5]
  half-life: 105 h
[6]
  Activity: Non-toxic
[7]
  AUC(0-t) at 24 h: 0.531 µM·h
[8]
  Activity: 90%
[9]
  CLint scaled at 1 µM: 16.6 mL/min/kg
CCRF-CEM [10]
  Activity: Weak_effect
[11]
  pIC50: 9.46
GTPase KRas
  pIC50: 8.20
AGS
  pIC50: 9.00
[12]
  fraction unbound at 2 µM: < 0.05
[13]
  concentration at 6 h: 113 ng/mL
Cytochrome P450 3A4 [14]
  inhibition (INH): Not_active
[15]
  inhibition in vivo at 1 mg/kg: 74.8%
ASPC1
  pIC50: 8.38
[16]
  Activity: 11%
[17]
  half-life: 94.6 h
Cytochrome P450 2C19
  inhibition (INH): Not_active
[18]
  half-life at 1 µM: 7.22 h
NCI-H358
  Activity: Weak_effect; Compound Showed Weaker Potency In Antiproliferative Activity Compared To Mrtx1133
CCRF-CEM [19]
  Activity: Active; Compound Showed Stronger Antiproliferative Activity Compared To Mrtx1133
Cytochrome P450 3A4 [20]
  inhibition (INH): Not_active
[21]
  concentration at 168 h: 5.3 ng/mL
[22]
  Activity: inactive
Cytochrome P450 2C8
  inhibition (INH): Not_active
NCI-H727
  Activity: Weak_effect; Compound Showed Weaker Potency In Antiproliferative Activity Compared To Mrtx1133
[23]
  AUC(0-t) at 24 h: 0.836 µM·h
[24]
  half-life: 15.6 h
[25]
  fraction unbound at 2 µM: < 0.05
